Test results taken from article PMC7070908, “Structure-Guided Identification of Black Cohosh (Actaea racemosa) Triterpenoids with In Vitro Activity against Multiple Myeloma” (Molecules, 2020).
Converted amounts (≈) assume the structure as drawn. “And” between values parts separate entries of the source, which are not always exact repeats. Equal values may be shown once.

Assays:
[1] = system: NCI-H929 myeloma cell line; assay: Cytotoxicity, flow cytometry (AnnexinV/propidium iodide negativity), NCI-H929; type: cell-based, human; details: for activity on NCI-H929 (in words): up to 37.5 µM
Procedure: (§1) Induction of apoptosis was measured in myeloma cell lines NCI-H929, OPM-2, and U266 as well as in peripheral blood mononuclear cells (PBMCs) of healthy donors by flow cytometry using established protocols thereby staining the cells with AnnexinV-fluorescein isothiocyanate and propidium iodide. Bortezomib (Eubio, Vienna, Austria) was used as positive control. Cell lines were purchased from DSMZ (Braunschweig, Germany) and routinely fingerprinted and tested for mycoplasma negativity. All cells (cell lines and PBMC) were grown in RPMI-1640 medium (Life Technologies, Paisley, UK) supplemented with 10% fetal calf serum (FCS; PAA, Linz, Austria), L-glutamine 100 µg/mL, and penicillin-streptomycin 100 U/mL. PBMCs from healthy donors were used after obtaining written informed consent at the University Hospital Salzburg (ethics committee approval 415-E/1287/6-2011). Cells were subjected to Ficoll separation (Ficoll PaqueTM) and incubated in RPMI-1640 Media with supplements as above. In brief, 0.5 × 10^6 myeloma cells/mL or similar numbers of PMBCs were incubated for 24 h and 48 h with or without the tested compounds dissolved in dimethyl sulfoxide at different concentrations. At least three analyses in triplicates were performed for each cell line and a solvent control was always included. As a positive control, the proteasome inhibitor bortezomib (BTZ) was used at concentrations of 10 and 5 nM. The extent of non-apoptotic cells (AnnexinV/propidium iodide negativity) was calculated as percentage of viable cells in respect to the untreated control. Data are shown as mean percentage of viable cells and standard error of the mean (SEM) (error bars).

[2] = system: OPM-2 myeloma cell line; assay: Cytotoxicity, flow cytometry (AnnexinV/propidium iodide negativity), OPM-2; type: cell-based, human; details: for activity on OPM-2 (in words): up to 37.5 µM
Procedure: as §1

[3] = system: U266 myeloma cell line; assay: Cytotoxicity, flow cytometry (AnnexinV/propidium iodide negativity), U266; type: cell-based, human; details: for activity on U266 (in words): up to 37.5 µM
Procedure: as §1

[4] = system: MCF7 breast cancer cells; parameters: method as in PMID 14758092; details: incubation times of 96 h; cited from earlier work
[5] = system: doxorubicin-resistant-MCF7 (R-MCF7) cells; parameters: method as in PMID 20564500; details: cited from earlier work; for IC50 R-MCF7: doxorubicin-resistant MCF7, 48 h of incubation
[6] = system: peripheral blood mononuclear cells (PBMCs) of healthy donors; assay: Cytotoxicity, flow cytometry (AnnexinV/propidium iodide negativity), PBMC of healthy donors; type: cell-based, human
Procedure: as §1

[7] = system: MCF7 cells; parameters: method as in PMID 20564500; details: cited from earlier work; for IC50 MCF7: 48 h of incubation
[8] = 5 nM, 24 h, positive control (Table 3)
[9] = 10 nM, 24 h, positive control (Table 3)
[10] = 12.5 µM, 24 h, second round (Table 3)
[11] = 25 µM, 24 h, second round (Table 3)
[12] = 37.5 µM, 24 h, second round (Table 3)
[13] = 25 µM, 24 h, % of untreated control, mean ± SEM (Table 1)
[14] = 25 µM, 48 h, % of untreated control, mean ± SEM (Table 2)
[15] = 50 µM, 24 h, % of untreated control, mean ± SEM (Table 1)
[16] = 50 µM, 48 h, % of untreated control, mean ± SEM (Table 2)

| SMILES | MM Cells % Alive NCI-H929 [1, 10] [%] | MM Cells % Alive NCI-H929 [1, 11] [%] | MM Cells % Alive NCI-H929 [1, 12] [%] | activity on NCI-H929 (in words) ([1]; 24 h) | MM Cells % Alive OPM-2 [2, 10] [%] | MM Cells % Alive OPM-2 [2, 11] [%] | MM Cells % Alive OPM-2 [2, 12] [%] | activity on OPM-2 (in words) ([2]; 24 h) | MM Cells % Alive U266 [3, 10] [%] | MM Cells % Alive U266 [3, 11] [%] | MM Cells % Alive U266 [3, 12] [%] | activity on U266 (in words) ([3]; 24 h) | IC50 growth inhibition of MCF7 breast cancer cells [4] [µg/mL] | PBMC % Alive [6, 10] [%] | PBMC % Alive [6, 11] [%] | PBMC % Alive [6, 12] [%] | also measured |
| --- | --- | --- | --- | --- | --- | --- | --- | --- | --- | --- | --- | --- | --- | --- | --- | --- | --- |
| CC(C)C[C@H](NC(=O)[C@H](Cc1ccccc1)NC(=O)c1cnccn1)B(O)O [BTZ, bortezomib, reference compound] |  |  |  |  |  |  |  |  |  |  |  |  |  |  |  |  | MM Cells % Alive NCI-H929 [1, 8]: 3.0 ± 1.0%; MM Cells % Alive NCI-H929 [1, 9]: 6.3 ± 5.4%; MM Cells % Alive OPM-2 [2, 8]: 85.3 ± 7.6%; MM Cells % Alive OPM-2 [2, 9]: 66.0 ± 9.4%; MM Cells % Alive U266 [3, 8]: 80.7 ± 14.1%; MM Cells % Alive U266 [3, 9]: 25.0 ± 8.3% |
| CC1CC2OC3(OC2C(C)(C)O)C1C1(C)CCC24CC25CCC(OC2OCC(O)C(O)C2O)C(C)(C)C5CCC4C1(C)C3O [Compound 5, cimigenol-3-O-α-L-arabinopyranoside] | 98.8 ± 0.9 | 97.0 ± 1.2 | 96.3 ± 1.3 | no activity | 99.8 ± 2.0 | 103.3 ± 1.4 | 103.5 ± 1.3 | no activity | 95.0 ± 3.1 | 95.8 ± 2.8 | 93.5 ± 3.5 | no activity |  |  |  |  |  |
| C=C(C)C1OC23OC1CC(C)C2C1(C)CCC24CC25CCC(OC2OCC(O)C(O)C2O)C(C)(C)C5CCC4C1(C)C3O [Compound 9, 25-anhydrocimigenol-3-O-α-L-arabinopyranoside] | 96.0 ±1.0 | 92.8 ± 1.7 | 92.0 ± 1.5 | no effect | 95.8 ± 2.4 | 100.0 ± 1.9 | 104.0 ± 4.7 | no effect | 101.5 ± 5.1 | 101.8 ± 4.3 | 101.3 ± 3.3 | no effect |  |  |  |  |  |
| CC(=O)O[C@@H]1C[C@@]23C[C@@]24CC[C@H](O[C@@H]2OC[C@@H](O)[C@H](O)[C@H]2O)C(C)(C)[C@@H]4CC[C@H]3[C@]2(C)C[C@@H]3O[C@@]4(C[C@@H](C)[C@@H]3[C@@]12C)OC[C@@]1(C)O[C@@H]41 [23-epi-26-deoxyactein] |  |  |  |  |  |  |  |  |  |  |  |  | 21 |  |  |  |  |
| CC(=O)OC(C)(C)C1OC23OC1CC(C)C2C1(C)CCC24CC25CCC(OC2OCC(O)C(O)C2O)C(C)(C)C5CCC4C1(C)C3O [Compound 3, 25-O-acetylcimigenol-3-O-α-L-arabinopyranoside] | 93.3 ± 1.8 | 59.5 ± 7.8 | 11.8 ± 4.3 |  | 99.5 ± 2.0 | 88.8 ± 1.8 | 70.8 ± 11.5 |  | 95.0 ± 2.4 | 77.8 ± 4.6 | 48.0 ± 7.4 |  |  | 101.7 ± 0.3 | 98.3 ± 2.0 | 58.7 ± 12.7 | MM Cells % Alive NCI-H929 [1, 13]: 52.9 ± 7.1%; MM Cells % Alive NCI-H929 [1, 14]: 18.9 ± 3.3%; MM Cells % Alive NCI-H929 [1, 15]: 10% and 10.3 ± 2.8%; IC50 ([1]; Homo sapiens, NCI-H929, 24 h, incubation for 24 h): 18.1 µg/mL (≈ 27.3 µM); IC50 R-MCF7 [5]: 5.3 µg/mL (≈ 8 µM); MM Cells % Alive OPM-2 [2, 13]: 63.8 ± 12%; MM Cells % Alive OPM-2 [2, 14]: 43.4 ± 9.3%; MM Cells % Alive OPM-2 [2, 15]: 20% and 19.7 ± 5.7%; IC50 ([2]; Homo sapiens, OPM-2, 24 h, incubation for 24 h): > 37.5 µg/mL; MM Cells % Alive U266 [3, 13]: 89.3 ± 3.2%; MM Cells % Alive U266 [3, 14]: 66.8 ± 9.5%; MM Cells % Alive U266 [3, 15]: 13% and 12.9 ± 3.5%; IC50 ([3]; Homo sapiens, U-266, 24 h, incubation for 24 h): 24.7 µg/mL (≈ 37.3 µM); PBMC % Alive [6, 13]: 86.5 ± 2.7%; PBMC % Alive [6, 14]: 76.2 ± 1.8%; PBMC % Alive [6, 15]: 6.1 ± 1.5%; PBMC % Alive [6, 16]: 4.6 ± 0.1%; IC50 ([6]; Homo sapiens, PBMC, 24 h, incubation for 24 h): 25.9 µg/mL (≈ 39.1 µM); IC50 MCF7 [7]: 4.0 µg/mL (≈ 6.03 µM) |
| CC1CC2OC3(OC2C(C)(C)O)C1C1(C)CCC24CC25CCC(OC2OCC(O)C(O)C2O)C(C)(C)C5CCC4C1(C)C3O [Compound 6, cimigenol-3-O-β-D-xylopyranoside] | 98.5 ± 0.8 | 91.8 ± 3.4 | 88.5 ± 0.3 | no activity | 101.7 ± 0.9 | 99.5 ± 1.8 | 100.5 ± 2.4 | no activity | 94.8 ± 3.0 | 94.5 ± 3.5 | 93.5 ± 3.2 | no activity |  |  |  |  | activity against R-MCF7 (in words) [5]: no activity; activity against MCF7 (in words) [7]: no activity |
| CC(=O)O[C@@H]1C[C@@]23C[C@@]24CC[C@H](O[C@@H]2OC[C@@H](O)[C@H](O)[C@H]2O)C(C)(C)[C@@H]4CC=C3[C@]2(C)C[C@@H]3O[C@@]4(O)[C@H](OC(C)(C)[C@H]4O)[C@@H](C)[C@@H]3[C@@]12C [cimiracemoside A] |  |  |  |  |  |  |  |  |  |  |  |  | 41 |  |  |  |  |
| COC(C)(C)C1OC23OC1CC(C)C2C1(C)CCC24CC25CCC(OC2OCC(O)C(O)C2O)C(C)(C)C5CCC4C1(C)C3O [Compound 8, 25-O-methyl-cimigenol-3-O-β-D-xylopyranoside] | 84.8 ± 5.0 | 31.3 ± 6.6 | 5.0 ± 1.7 |  | 97.8 ± 2.1 | 84.3 ± 4.5 | 27.0 ± 9.4 |  | 102.0 ± 3.0 | 97.5 ± 3.8 | 81.0 ± 11.9 |  |  | 104.3 ± 0.3 | 96.3 ± 1.7 | 64.3 ± 8.0 | IC50 NCI-H929 ([1]; incubation for 24 h): 14.2 µg/mL (≈ 22.4 µM); IC50 OPM-2 ([2]; incubation for 24 h): 20.7 µg/mL (≈ 32.6 µM); IC50 U266 ([3]; incubation for 24 h): 31.1 µg/mL (≈ 49 µM); IC50 PBMC ([6]; incubation for 24 h): 26.0 µg/mL (≈ 41 µM) |
| CC(=O)O[C@@H]1C[C@@]23C[C@@]24CC[C@H](O[C@@H]2OC[C@@H](O)[C@H](O)[C@H]2O)C(C)(C)[C@@H]4CC[C@H]3[C@]2(C)C[C@@H]3O[C@]4(C[C@@H](C)[C@@H]3[C@@]12C)O[C@H](O)[C@@]1(C)O[C@@H]41 [Compound 1, actein] |  |  |  |  |  |  |  |  |  |  |  |  | 14 |  |  |  | MM Cells % Alive NCI-H929 [1, 13]: 80.5 ± 5.9%; MM Cells % Alive NCI-H929 [1, 14]: 70.2 ± 4.3%; MM Cells % Alive NCI-H929 [1, 15]: 48.2 ± 10.9%; MM Cells % Alive NCI-H929 [1, 16]: 13.2 ± 2.4%; MM Cells % Alive OPM-2 [2, 13]: 93.2 ± 3.7%; MM Cells % Alive OPM-2 [2, 14]: 93.1 ± 2.4%; MM Cells % Alive OPM-2 [2, 15]: 81.1 ± 4.7%; MM Cells % Alive OPM-2 [2, 16]: 67.3 ± 6.7%; MM Cells % Alive U266 [3, 13]: 90.2 ± 4.1%; MM Cells % Alive U266 [3, 14]: 81.0 ± 5.9%; MM Cells % Alive U266 [3, 15]: 75.1 ± 6.4%; MM Cells % Alive U266 [3, 16]: 35.5 ± 6.7%; PBMC % Alive [6, 13]: 96.4 ± 0.1%; PBMC % Alive [6, 14]: 94.6 ± 0.2%; PBMC % Alive [6, 15]: 85.6 ± 1.2%; PBMC % Alive [6, 16]: 74.9 ± 1.2% |
| CC(=O)OC(C)(C)C1OC23OC1CC(C)C2C1(C)CCC24CC25CCC(OC2OCC(O)C(O)C2O)C(C)(C)C5CCC4C1(C)C3O [Compound 4, 25-O-acetylcimigenol-3-O-β-D-xylopyranoside] | 84.3 ± 8.6 | 59.5 ± 8.7 | 27.8 ± 6.6 |  | 94.8 ± 5.3 | 90.3 ± 3.7 | 56.0 ± 13.0 |  | 91.8 ± 4.2 | 87.8 ± 2.0 | 88.0 ± 1.2 |  |  | 96.7 ± 2.9 | 72.7 ± 5.4 | 28.7 ± 5.9 | IC50 NCI-H929 ([1]; incubation for 24 h): 20.3 µg/mL (≈ 30.6 µM); IC50 R-MCF7 [5]: 4.8 µg/mL (≈ 7.24 µM); IC50 OPM-2 ([2]; incubation for 24 h): 26.3 µg/mL (≈ 39.7 µM); IC50 U266 ([3]; incubation for 24 h): >37.5 µg/mL; IC50 PBMC ([6]; incubation for 24 h): 20.7 µg/mL (≈ 31.2 µM); IC50 MCF7 [7]: 4.3 µg/mL (≈ 6.49 µM) |
